# Test results published in patent US5869662A, “Photochromic benzopyran compounds” (Vision-Ease Lens, Inc., priority 1997, dated 1999).
# Assays:
# [1] = Maximum absorption wavelength (λmax) of the activated form in chloroform under ultraviolet irradiation; type: physicochemical; conditions: UV irradiation, 350 nm
# Procedure: Two grams of the propargyl alcohol obtained in Step 1 were mixed with 1.25 grams of 2-hydroxydibenzofuran in 200 milliliters of benzene. Twenty milligrams of p-toluenesultonic acid were then added and the mixture was stirred under reflux for 8 hours. The resultant mixture was cooled and washed with 10% aqueous sodium hydroxide. The organic solvent (benzene) was removed using a rotary evaporator. The resulting material was dissolved in hexane and the resulting hexane solution was cooled to yield a recrystallized product.
# The recrystallized product formed in Step 2 of Example 1; the 3-(4-biphenytyl)-3-phenyl-8-methoxy-3H-naphtho[2,1b]pyran formed in Comparative Example 1; and a purchased sample of 3,3-diphenyl-3H-naphtho-[2,1b]pyran (identified as Comparative Example 2) were each individually dissolved in chloroform in separate containers. These chloroform dissolved substances were then irradiated with ultraviolet light with a maximum wavelength of 350 manometers and measured for maximum absorption wavelength, λmax. The fade time, T1/2, was then determined for each of the irradiated substances. […] The maximum absorption wavelength and fade time determined for the irradiated substances of Example 1 and Comparative Examples 1-2 are presented in Table 1: […]
# [2] = Becker patent; cited from earlier work
# [3] = Fade time (T1/2) of the activated form in chloroform at room temperature; type: physicochemical; conditions: room temperature (72° F.), absorbance of activated form falls to one half of maximum after isolation from UV
# Procedure: These chloroform dissolved substances were then irradiated with ultraviolet light with a maximum wavelength of 350 manometers and measured for maximum absorption wavelength, λmax. The fade time, T1/2, was then determined for each of the irradiated substances. The fade time for of the chloroform-dissolved substances is defined as the time interval, at room temperature (72° F.), for the absorbance of the activated form of each chloroform-dissolved substance to decrease to one half of the maximum absorbance, after the substance is isolated from the activating source of ultraviolet light.
SMILES,"maximum absorption wavelength, λmax (only or shorter-wavelength maximum) [1] [nanometers]",photochromic at room temperature [2],"fade time, T1/2 [3] [s]"
"COc1ccc2c3c(ccc2c1)OC(c1ccccc1)(c1ccc(-c2ccccc2)cc1)C=C3 (stereo not shown) [Comparative Example 1, 3-(4-biphenylyl)-3-phenyl-8-methoxy-3H-naphtho[2,1b]pyran]",484,–,–
"C1=CC(c2ccccc2)(c2ccccc2)Oc2ccc3ccccc3c21 [Comparative Example 2, 3,3-diphenyl-3H-naphtho-[2,1b]pyran]",434,photochromic at room temperature,13
